Assay results taken from paper PMC5963095 (International Journal for Parasitology: Drugs and Drug …, 2017).

How the values were obtained:
PfEXP1 = biological target: T1, PfEXP1 (Plasmodium falciparum, UniProt Q8IIF0); experiment: glutathione S-transferase assay, absorbance at […] nm; assay type: biochemical
T1 sequence (Q8IIF0 23-162): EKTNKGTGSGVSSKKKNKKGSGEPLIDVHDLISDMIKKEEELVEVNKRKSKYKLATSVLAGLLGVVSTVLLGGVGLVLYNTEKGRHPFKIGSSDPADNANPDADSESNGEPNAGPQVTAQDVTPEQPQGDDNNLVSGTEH

[1] = biological target: T2, PfEXP1 (expressed in Pichia pastoris) (Plasmodium falciparum, UniProt Q8IIF0); experiment: as above; assay type: biochemical
T2 sequence (Q8IIF0 23-162): T1 sequence (Q8IIF0 23-162)

SMILES: CCN(CC)CCCC(C)Nc1ccnc2cc(Cl)ccc12 (stereo not drawn) [chloroquine]
- IC50 (PfEXP1): 19.3 ± 2.67 nM
- IC50 [1]: 11.1 ± 4.12 nM

SMILES: C=C[C@H]1C[N@@]2CC[C@H]1C[C@H]2[C@H](O)c1ccnc2ccc(OC)cc12 [quinine]
- IC50 [1]: 179 ± 52.1 nM
